Assay results published in ChEMBL document CHEMBL1121775, “Synthesis and antimalarial effects of N2-aryl-N4-[(dialkylamino)alkyl]- and N4-aryl-N2-[(dialkylamino)alkyl]-2,4-quinazolinediamines” (J Med Chem, 1981).
Several values for one entry are separate records, joined by “and”; a condition that tells them apart may be missing. Identical values can stand only once.

Experiments:
Plasmodium berghei [1] = experiment: Antimalarial effect against trophozoite-induced Plasmodium berghei in mice (Mus musculus) after 20 mg/kg subcutaneous dose; assay type: functional
Plasmodium berghei [2] = experiment: Antimalarial effect against trophozoite-induced Plasmodium berghei in mice (Mus musculus) at 320 mg/kg subcutaneous dose; assay type: functional
Plasmodium berghei [3] = experiment: Antimalarial effect against trophozoite-induced Plasmodium berghei in mice (Mus musculus) after 40 mg/kg subcutaneous dose; assay type: functional
Plasmodium berghei [4] = experiment: Antimalarial activity against trophozoite-induced Plasmodium berghei in mice (Mus musculus) at 160 mg/kg subcutaneous dose; assay type: functional
Plasmodium berghei [5] = experiment: Antimalarial activity against trophozoite-induced Plasmodium berghei in mice (Mus musculus); assay type: functional
Plasmodium berghei [6] = experiment: Antimalarial effect against trophozoite-induced Plasmodium berghei in mice (Mus musculus) at 80 mg/kg subcutaneous dose; assay type: functional
Mus musculus [7] = experiment: Number of mice cured at a subcutaneous dose of 160 mg/kg.; assay type: functional
Mus musculus [8] = experiment: Number of mice cured at a dose of 640 mg/kg sc; assay type: functional; conditions: route subcutaneous
[9] = The ratio of SD90 of the quinine hydrochloride, to the SD90 of the test substance for the Dose of 20 mg/kg; assay type: functional
Mus musculus [10] = experiment: Number of mice cured at a subcutaneous dose of 320 mg/kg.; assay type: functional
Mus musculus [11] = experiment: Antimalarial effect against trophozoite-induced Plasmodium berghei in mice (Mus musculus) at dosage of 320 mg/kg after subcutaneous administration;; assay type: functional
Mus musculus [12] = experiment: Number of toxic deaths at a dose of 320 mg/kg; assay type: toxicity, organism-based; design: dose 320 mg/kg; conditions: in vivo
Mus musculus [13] = experiment: Number of toxic deaths at a dose of 640 mg/kg; assay type: toxicity, organism-based; design: dose 640 mg/kg; conditions: in vivo
Mus musculus [14] = experiment: (§1) Number of toxic deaths at a dose of 160 mg/kg; assay type: toxicity, organism-based; design: dose 160 mg/kg; conditions: in vivo
[15] = The ratio of SD90 of the quinine hydrochloride, to the SD90 of the test substance for the Dose of 45 mg/kg; assay type: functional
Mus musculus [16] = experiment: as §1; assay type: functional
Plasmodium berghei [17] = experiment: (§2) Antimalarial effect against trophozoite-induced Plasmodium berghei in mice (Mus musculus) at 640 mg/kg subcutaneous dose; assay type: functional; conditions: 640 mg/kg
Plasmodium berghei [18] = experiment: Antimalarial effect against trophozoite-induced Plasmodium berghei in mice (Mus musculus) at 160 mg/kg subcutaneous dose; assay type: functional
[19] = The ratio of SD90 of the quinine hydrochloride, to the SD90 of the test substance for the Dose of 70 mg/kg; assay type: functional
Mus musculus [20] = experiment: Antimalarial effect against trophozoite induced Plasmodium berghei in mice (Mus musculus) at dosage of 160 mg/kg after subcutaneous administration; No. of mice (Mus musculus) surviving after 60 days 2; assay type: functional
Mus musculus [21] = experiment: Number of mice cured at a subcutaneous dose of 640 mg/kg.; assay type: functional
Mus musculus [22] = experiment: Antimalarial effect against trophozoite-induced Plasmodium berghei in mice (Mus musculus) at dosage of 80 mg/kg after subcutaneous administration; assay type: functional
[23] = The ratio of SD90 of the quinine hydrochloride, to the SD90 of the test substance for the Dose of 155 mg/kg; assay type: functional
[24] = The ratio of SD90 of the quinine hydrochloride, to the SD90 of the test substance for the Dose of 69 mg/kg; assay type: functional
Mus musculus [25] = experiment: Number of mice cured at a dose of 320 mg/kg sc; assay type: functional; conditions: route subcutaneous
[26] = The ratio of SD90 of the quinine hydrochloride, to the SD90 of the test substance for the Dose of […] mg/kg; assay type: functional
[27] = The ratio of SD90 of the quinine hydrochloride, to the SD90 of the test substance for the Dose of 37 mg/kg/day; assay type: functional
Plasmodium berghei [28] = experiment: as §2; assay type: functional
Mus musculus [29] = experiment: Antimalarial effect against trophozoite induced Plasmodium berghei in mice (Mus musculus) at dosage of 320 mg/kg after subcutaneous administration; No. of mice (Mus musculus) surviving after 60 days 3; assay type: functional

| Structure (SMILES) | MST (Plasmodium berghei [1]) | MST (Plasmodium berghei [2]) | MST (Plasmodium berghei [3]; 40 mg/kg) | SD90 (Plasmodium berghei [5]) | MST (Plasmodium berghei [6]) | MST (Plasmodium berghei [3]) | MST (Plasmodium berghei [4]) | No. of toxic deaths (Mus musculus [13]) | MST (Plasmodium berghei [18]; 160 mg/kg) | other results |
| --- | --- | --- | --- | --- | --- | --- | --- | --- | --- | --- |
| CN1CCCC1CCNc1nc(Nc2cc(Cl)cc(Cl)c2)nc2ccc(Cl)cc12 (configuration not stated) | 0.6 days | 21.1 days | 3.6 days and 4 days | 20 mg/kg/day | 5 days | – | – | – | – | MST (Plasmodium berghei [4]; 160 mg/kg): 11.1 days and 10.3 days; No. of survivals (Mus musculus [7]): 1; No. of survivals (Mus musculus [8]): 5; Ratio [9]: 3.8; No. of survivals (Mus musculus [10]): 1 |
| CCOc1ccc(Nc2nc(NCCN(CC)CC)c3cc(Cl)ccc3n2)cc1CN(CC)CC | 0.2 days | – | – | 45 mg/kg/day | 3.2 days | 0.8 days | 4.3 days | 5 | – | MST (Mus musculus [11]): 5.8 days; No. of toxic deaths (Mus musculus [12]): 4; No. of toxic deaths (Mus musculus [14]): 1; Ratio [15]: 1.6 |
| CCN(CC)CCNc1nc(NCc2ccc(Cl)c(Cl)c2)nc2ccccc12 | – | – | – | – | – | 0.7 days | 0.9 days | 5 | – | No. of toxic deaths (Mus musculus [16]): 1 |
| Clc1ccc(Nc2nc(NCCN3CCCC3)c3ccccc3n2)cc1Cl | 0.3 days | 9.3 days | 2.1 days and 2.3 days | 70 mg/kg/day | 3.1 days | – | – | – | 6.5 days and 7.1 days | MST (Plasmodium berghei [17]): 15.9 days and 13.7 days; Ratio [19]: 1.1 |
| CCN(CC)Cc1cc(Nc2nc(NC3CCC(N(C)C)CC3)c3ccccc3n2)ccc1OC (configuration not stated) | 7.5 days | – | 7.7 days and 7.2 days | 155 mg/kg/day | – | – | 13 days | 5 | – | MST (Mus musculus [20]): 16.3 days; No. of cured (Mus musculus [21]): 3; MST (Mus musculus [22]): 13 days; No. of toxic deaths (Mus musculus [12]): 5; Ratio [23]: 0.5 |
| CCN(CC)CCNc1nc(Nc2ccc(Cl)c(Cl)c2)nc2ccc(NCc3ccc(Cl)c(Cl)c3)cc12 | 0.2 days | 5.6 days | 0.2 days and 0.4 days | 69 mg/kg/day | 0.4 days | – | – | – | – | MST (Plasmodium berghei [18]): 3.8 days; Ratio [24]: 1.1 |
| CCN(CC)C1CCC(Nc2nc(Nc3cc(Br)cc(Br)c3)nc3ccccc23)CC1 (configuration not stated) | 0.3 days | 26.2 days | 1.1 days and 0.7 days | 3.3 mg/kg/day | 4.3 days | – | – | – | 8.7 days and 9.1 days | No. of cured (Mus musculus [25]): 2; No. of cured (Mus musculus [21]): 5; Ratio [26]: 2.3 |
| FC(F)(F)c1ccc(Nc2nc(NCCN3CCCC3)c3ccccc3n2)cc1 | 0.2 days | 10.2 days | 0.4 days and 0.8 days | 37 mg/kg/day | 2.4 days | – | – | – | 4.8 days and 3.4 days | MST (Plasmodium berghei [17]): 16.2 days and 13.2 days; Ratio [27]: 2 |
| CCN1CCC(CNc2nc(Nc3ccc(C(F)(F)F)cc3)c3ccccc3n2)CC1 | 0.3 days | 8.9 days | – | – | – | 0.5 days | 3.9 days | – | – | MST (Plasmodium berghei [28]): 21.9 days; MST (Plasmodium berghei [18]): 7.3 days; MST (Plasmodium berghei [6]; 80 mg/kg): 0.5 days and 0.7 days; No. of survivals (Mus musculus [7]): 1; No. of survivals (Mus musculus [8]): 4; MST (Mus musculus [29]): 9.4 days; No. of survivals (Mus musculus [10]): 3 |
